Test [1] concerns the target Serine/threonine-protein kinase 38 (Homo sapiens) (UniProt Q15208). In words: Selectivity interaction (LanthaScreen Eu Kinase Binding Assay) EUB0001632a STK38. Particulars: at 10 µM. On the technique in general: In TR-FRET formats the signal depends on donor and acceptor labels being close together.
For test [2], the target named is Ephrin type-A receptor 5 (Homo sapiens) (UniProt P54756). In words: Selectivity interaction (Kinase panel (Z-LYTE Assay)) EUB0001632a EPHA5. As to conditions: at 10 µM.
Test [3] deals with T1, Dual specificity mitogen-activated protein kinase kinase 3 (Homo sapiens) (UniProt P46734).
T1 sequence (whole entry): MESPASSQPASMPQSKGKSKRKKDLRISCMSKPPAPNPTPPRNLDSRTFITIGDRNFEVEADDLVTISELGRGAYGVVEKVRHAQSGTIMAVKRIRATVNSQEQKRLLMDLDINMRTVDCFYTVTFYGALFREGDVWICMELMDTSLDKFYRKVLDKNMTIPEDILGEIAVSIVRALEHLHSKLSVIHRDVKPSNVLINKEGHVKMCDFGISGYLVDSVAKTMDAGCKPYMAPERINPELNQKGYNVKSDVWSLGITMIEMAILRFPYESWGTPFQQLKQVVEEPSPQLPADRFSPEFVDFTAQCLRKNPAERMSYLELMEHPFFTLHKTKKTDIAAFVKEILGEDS
The test can be described thus: Selectivity interaction (KinomeScan (DiscoverX)) EUB0000595a MAP2K3. Particulars: at 10 µM.

In test [4] the test system is Mast/stem cell growth factor receptor Kit (Homo sapiens), P10721 [D816V]. In words: (§1) Selectivity interaction (KinomeScan (DiscoverX)) EUB0000695a KIT. As to conditions: at 100 nM.
Test [5] has as its system Mast/stem cell growth factor receptor Kit (Homo sapiens), P10721 [D816H]. The description is as §1. As to conditions: at 100 nM.
Test [6] concerns Mast/stem cell growth factor receptor Kit (Homo sapiens), P10721 [L576P]. The test is described as §1. Particulars: at 100 nM.
In test [7] the target is Mast/stem cell growth factor receptor Kit (Homo sapiens, UniProt P10721). Described as §1. As to conditions: at 100 nM.
Test [8] relates to Mast/stem cell growth factor receptor Kit (Homo sapiens), P10721 [A829P]. The description is as §1. Particulars: at 100 nM.
Test [9] relates to Mast/stem cell growth factor receptor Kit (Homo sapiens), P10721 [V559D]. The description is as §1. As to conditions: at 100 nM.
The subject of test [10] is Mast/stem cell growth factor receptor Kit (Homo sapiens), P10721 [V559D,V654A]. The test is described as §1. As to conditions: at 100 nM.
For test [11], the system named is Mast/stem cell growth factor receptor Kit (Homo sapiens), P10721 [V559D,T670I]. Described as §1. Particulars: at 100 nM.
In test [12] the target is Myosin light chain kinase, smooth muscle (Homo sapiens, UniProt Q15746). As to conditions: at 10 µM.
Test [13] addresses MAP kinase-interacting serine/threonine-protein kinase 2 (Homo sapiens, UniProt Q9HBH9). In words: Selectivity interaction (KinomeScan (DiscoverX)) EUB0001049a MKNK2. Particulars: at 1 µM.
For test [14], the target named is T2, SNF-related serine/threonine-protein kinase (Homo sapiens) (UniProt Q9NRH2).
T2 sequence (whole entry): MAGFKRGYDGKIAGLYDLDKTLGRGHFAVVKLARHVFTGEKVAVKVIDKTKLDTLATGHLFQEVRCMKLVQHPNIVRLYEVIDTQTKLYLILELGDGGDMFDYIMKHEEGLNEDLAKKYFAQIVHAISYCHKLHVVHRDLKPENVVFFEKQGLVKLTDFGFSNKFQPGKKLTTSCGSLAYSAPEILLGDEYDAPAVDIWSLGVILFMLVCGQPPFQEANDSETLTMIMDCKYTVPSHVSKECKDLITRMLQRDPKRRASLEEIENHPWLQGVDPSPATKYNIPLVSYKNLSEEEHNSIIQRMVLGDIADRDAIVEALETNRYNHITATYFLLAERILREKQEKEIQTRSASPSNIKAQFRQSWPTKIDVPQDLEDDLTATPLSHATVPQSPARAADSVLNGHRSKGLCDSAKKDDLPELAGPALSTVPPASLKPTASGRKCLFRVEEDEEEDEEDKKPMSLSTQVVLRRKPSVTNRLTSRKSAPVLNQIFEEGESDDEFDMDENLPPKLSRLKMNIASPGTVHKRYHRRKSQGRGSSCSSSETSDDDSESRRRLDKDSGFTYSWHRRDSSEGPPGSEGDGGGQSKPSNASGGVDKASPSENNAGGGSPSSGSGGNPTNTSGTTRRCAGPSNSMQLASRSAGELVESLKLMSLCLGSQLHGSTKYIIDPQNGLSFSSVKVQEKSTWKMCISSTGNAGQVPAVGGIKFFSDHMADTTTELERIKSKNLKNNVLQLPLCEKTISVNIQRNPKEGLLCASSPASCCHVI
In words: Selectivity interaction (KinomeScan (DiscoverX)) EUB0000655a SNRK. Particulars: at 10 µM.

For test [15], the target named is Phosphatidylinositol 4-phosphate 5-kinase type-1 alpha (Homo sapiens) (UniProt Q99755). The test can be described thus: Selectivity interaction (KinomeScan (DiscoverX)) EUB0000092b PIP5K1A. As to conditions: at 10 µM.
The target of test [16] is 5-hydroxytryptamine receptor 2B (Homo sapiens, UniProt P41595). In words: Selectivity interaction (Panel of non-epigenetic targets (kinases, GPCRs, ion channels, and transporters, Eurofins) ) EUB0000271b HTR2B. Particulars: at 1 µM.
Sequence of 5-hydroxytryptamine receptor 2B (P41595 whole entry): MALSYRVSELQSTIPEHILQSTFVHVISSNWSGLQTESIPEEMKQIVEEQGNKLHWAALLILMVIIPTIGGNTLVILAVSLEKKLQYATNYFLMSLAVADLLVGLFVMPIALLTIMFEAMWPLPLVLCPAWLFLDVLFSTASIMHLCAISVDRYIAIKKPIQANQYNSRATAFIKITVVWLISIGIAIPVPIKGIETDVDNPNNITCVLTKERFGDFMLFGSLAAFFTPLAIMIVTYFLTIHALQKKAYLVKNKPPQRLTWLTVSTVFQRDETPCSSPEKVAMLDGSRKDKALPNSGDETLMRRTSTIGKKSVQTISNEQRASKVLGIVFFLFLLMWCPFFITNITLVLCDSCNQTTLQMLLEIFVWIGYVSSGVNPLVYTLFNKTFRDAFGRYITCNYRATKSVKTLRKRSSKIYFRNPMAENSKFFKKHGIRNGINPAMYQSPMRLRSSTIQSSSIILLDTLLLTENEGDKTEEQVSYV

Sequence of Mast/stem cell growth factor receptor Kit (Homo sapiens), P10721 [V559D] (P10721 whole entry V559D): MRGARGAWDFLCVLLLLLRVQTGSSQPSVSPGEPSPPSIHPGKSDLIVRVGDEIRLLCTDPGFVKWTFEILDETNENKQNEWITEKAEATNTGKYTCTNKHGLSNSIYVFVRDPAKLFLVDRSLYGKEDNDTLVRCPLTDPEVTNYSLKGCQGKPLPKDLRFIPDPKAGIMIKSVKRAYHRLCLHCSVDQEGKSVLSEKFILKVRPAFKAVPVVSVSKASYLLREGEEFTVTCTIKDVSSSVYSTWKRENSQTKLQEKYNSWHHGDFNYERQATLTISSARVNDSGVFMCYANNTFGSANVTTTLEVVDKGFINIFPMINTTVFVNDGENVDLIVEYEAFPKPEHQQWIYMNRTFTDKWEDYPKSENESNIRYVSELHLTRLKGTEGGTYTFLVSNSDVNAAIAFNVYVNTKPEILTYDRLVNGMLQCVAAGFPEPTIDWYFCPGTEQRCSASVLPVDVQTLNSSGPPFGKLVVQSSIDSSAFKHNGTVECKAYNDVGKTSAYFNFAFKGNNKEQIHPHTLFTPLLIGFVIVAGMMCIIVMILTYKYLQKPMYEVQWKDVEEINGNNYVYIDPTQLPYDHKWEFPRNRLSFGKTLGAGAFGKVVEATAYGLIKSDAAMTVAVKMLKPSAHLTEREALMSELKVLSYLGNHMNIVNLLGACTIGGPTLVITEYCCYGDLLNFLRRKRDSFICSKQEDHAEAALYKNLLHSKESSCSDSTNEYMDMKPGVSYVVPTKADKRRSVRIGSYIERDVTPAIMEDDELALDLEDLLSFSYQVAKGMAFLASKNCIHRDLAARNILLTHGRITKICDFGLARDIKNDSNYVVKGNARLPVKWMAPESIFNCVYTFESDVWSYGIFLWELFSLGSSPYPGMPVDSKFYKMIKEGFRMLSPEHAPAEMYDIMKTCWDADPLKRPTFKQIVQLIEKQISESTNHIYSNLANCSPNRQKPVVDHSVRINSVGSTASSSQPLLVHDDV
Sequence of Myosin light chain kinase, smooth muscle (Q15746 whole entry): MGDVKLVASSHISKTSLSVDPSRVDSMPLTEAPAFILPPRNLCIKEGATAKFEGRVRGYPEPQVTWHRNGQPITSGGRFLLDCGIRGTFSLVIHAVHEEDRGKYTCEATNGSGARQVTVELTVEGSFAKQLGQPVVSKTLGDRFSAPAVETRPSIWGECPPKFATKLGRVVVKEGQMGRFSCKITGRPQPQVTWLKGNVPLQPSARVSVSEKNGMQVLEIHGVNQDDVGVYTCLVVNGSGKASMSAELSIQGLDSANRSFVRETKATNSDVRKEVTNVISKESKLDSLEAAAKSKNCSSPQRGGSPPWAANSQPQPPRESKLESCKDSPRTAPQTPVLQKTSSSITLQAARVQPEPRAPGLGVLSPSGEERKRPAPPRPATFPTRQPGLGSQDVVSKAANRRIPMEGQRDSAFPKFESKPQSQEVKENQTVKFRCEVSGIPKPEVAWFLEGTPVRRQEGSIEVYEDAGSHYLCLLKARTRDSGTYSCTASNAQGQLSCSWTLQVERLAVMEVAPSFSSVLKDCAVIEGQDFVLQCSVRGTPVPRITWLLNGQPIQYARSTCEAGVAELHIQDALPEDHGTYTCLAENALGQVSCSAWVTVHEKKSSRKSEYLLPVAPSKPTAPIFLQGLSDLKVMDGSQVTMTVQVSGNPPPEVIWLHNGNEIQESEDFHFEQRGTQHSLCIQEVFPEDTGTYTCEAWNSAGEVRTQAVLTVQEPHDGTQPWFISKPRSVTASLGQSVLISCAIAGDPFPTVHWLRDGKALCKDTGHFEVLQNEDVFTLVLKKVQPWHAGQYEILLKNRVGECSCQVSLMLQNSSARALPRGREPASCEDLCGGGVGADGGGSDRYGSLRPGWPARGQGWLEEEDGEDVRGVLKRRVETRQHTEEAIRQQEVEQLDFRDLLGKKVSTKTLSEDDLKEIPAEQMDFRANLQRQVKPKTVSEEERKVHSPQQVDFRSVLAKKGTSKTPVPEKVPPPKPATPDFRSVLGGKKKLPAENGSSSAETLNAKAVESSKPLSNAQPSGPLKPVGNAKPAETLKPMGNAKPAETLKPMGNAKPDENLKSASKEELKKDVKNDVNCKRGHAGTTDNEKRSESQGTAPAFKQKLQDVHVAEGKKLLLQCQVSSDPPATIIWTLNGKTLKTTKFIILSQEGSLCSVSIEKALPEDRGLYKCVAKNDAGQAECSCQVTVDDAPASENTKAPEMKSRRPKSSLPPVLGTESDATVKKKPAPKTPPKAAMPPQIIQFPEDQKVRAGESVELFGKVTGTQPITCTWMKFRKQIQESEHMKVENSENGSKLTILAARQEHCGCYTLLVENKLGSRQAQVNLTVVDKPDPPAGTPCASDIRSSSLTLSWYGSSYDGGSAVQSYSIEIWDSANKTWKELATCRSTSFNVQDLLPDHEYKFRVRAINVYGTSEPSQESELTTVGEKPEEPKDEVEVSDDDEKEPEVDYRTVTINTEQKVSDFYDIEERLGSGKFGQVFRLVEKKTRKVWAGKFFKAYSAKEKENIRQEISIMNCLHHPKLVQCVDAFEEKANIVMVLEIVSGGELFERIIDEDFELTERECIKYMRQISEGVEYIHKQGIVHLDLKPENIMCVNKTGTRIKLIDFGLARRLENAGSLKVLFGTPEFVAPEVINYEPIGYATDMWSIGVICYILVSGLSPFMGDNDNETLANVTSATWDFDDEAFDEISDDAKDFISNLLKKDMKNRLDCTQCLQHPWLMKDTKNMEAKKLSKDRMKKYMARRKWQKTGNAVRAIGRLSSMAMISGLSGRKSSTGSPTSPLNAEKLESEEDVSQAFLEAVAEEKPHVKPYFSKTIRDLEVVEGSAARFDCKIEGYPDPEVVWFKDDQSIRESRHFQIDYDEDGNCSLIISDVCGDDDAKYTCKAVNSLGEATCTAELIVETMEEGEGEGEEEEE
Sequence of Mast/stem cell growth factor receptor Kit (Homo sapiens), P10721 [D816V] (P10721 whole entry D816V): as the sequence (P10721 whole entry V559D) above, with D559V, D816V counted along it
Sequence of Serine/threonine-protein kinase 38 (Homo sapiens) (Q15208 2-465 limits assumed): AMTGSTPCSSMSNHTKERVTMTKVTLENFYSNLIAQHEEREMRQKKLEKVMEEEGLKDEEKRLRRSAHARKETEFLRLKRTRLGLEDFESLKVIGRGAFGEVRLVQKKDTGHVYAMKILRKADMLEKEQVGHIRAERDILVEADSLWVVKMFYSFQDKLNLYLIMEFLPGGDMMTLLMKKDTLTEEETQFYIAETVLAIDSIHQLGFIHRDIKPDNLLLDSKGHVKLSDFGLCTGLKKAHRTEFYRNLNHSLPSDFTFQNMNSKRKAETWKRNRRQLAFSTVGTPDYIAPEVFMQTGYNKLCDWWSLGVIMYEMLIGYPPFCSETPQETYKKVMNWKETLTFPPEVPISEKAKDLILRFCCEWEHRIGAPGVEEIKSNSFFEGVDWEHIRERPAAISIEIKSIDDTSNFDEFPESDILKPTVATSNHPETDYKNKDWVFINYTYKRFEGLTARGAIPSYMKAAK

`Cn1cc(-n2cnc3c(NCc4nc5cc(Cl)c(Cl)cc5[nH]4)nc(N4CCOCC4)nc32)cn1`: the % of inhibition in [1] is -27%. The molecule also came in with a % of control in [2] of 6.77%.

As for `COCC(=O)NC/C=C/c1ccc2ncnc(Nc3ccc(Oc4ccc(C)nc4)c(C)c3)c2c1` [CP-724714], the % of control in test [3] turned out to be 100%.

Regarding `Cc1cc(F)c(C(=O)Nc2cccc(-c3nncn3C(C)C)n2)cc1-n1cnc(C2CC2)c1`, the % of control came to 84% in [4]; 79% in [5]; 94% in test [6]; 89% in [7]; 82% in test [8]; 92% in test [9]. Also, the % of control in test [10] and in test [11] was 100% in each case.

Take `Cc1cc([C@@H](C)Nc2ccccc2C(=O)O)c2nc(N3CCOCC3)cc(=O)n2c1` [AZD-6482]: in [12], the % of control amounted to 100%.

As to `COc1cc(Nc2nc(C)cc(-c3cnn4nc(OC)ccc34)n2)cc(C(F)(F)F)c1`, the % of control in test [13] came to 78%.

The molecule `CN(C)CCOc1ccc(-c2nc(-c3ccncc3)c(-c3ccc4c(c3)CC/C4=N\O)[nH]2)cc1` displayed a % of control in test [14] of 89%.

As to `CCC(=O)N1CCN(c2ccc(-n3c(=O)ccc4cnc5ccc(-c6cnc7ccccc7c6)cc5c43)cc2C(F)(F)F)CC1`, in test [15], the % of control came to 89%.

In the case of `Cc1cc(C)cc([C@@H]2c3cc(C)ccc3NC(=O)CN2C(=O)c2ccc(Br)s2)c1`, the % of inhibition in [16] was determined as 1%.

These data come from ChEMBL document CHEMBL5465560, “Selectivity Literature for EUbOPEN Chemogenomic Library” (2024).
